For seven compounds, ED50 and IC50 results are on record in patent US4921887A, “Thiazole compounds and pharmaceutical composition comprising the same” (Fujisawa Pharmaceutical Company, Ltd., priority 1987, dated 1990).

One may read the ED50 as the dose at which the effect has come halfway, by size or by number of responders.

In brackets after ≈: the same amount, converted by molar mass.

The test system of test [1] is anaphylactic asthma in guinea pigs. Briefly: Antagonistic action on anaphylactic asthma in guinea pigs. In kind it is in vivo, guinea pigs (male Hartley-strain). The following applies: Cavia porcellus; oral, 30 minutes prior to egg-white albumin aerosol; survival not less than 2 hours after antigen spraying; read-out: Prophylactic Effect ED50. Here is the method: Antagonistic action on anaphylactic asthma in guinea pigs
Male Hartley-strain guinea pigs weighing 305-400 g were used. These animals were sensitized by intravenous injection of 0.5 ml/animal of rabbit antiserum to egg-white albumin (PCA antibody titer 4,000). After 24 hours, the animals were housed individually in 5.3-liter plastic chambers. Using a commercial sprayer, a 5% egg-white albumin solution was sprayed in the form of an aerosol into each chamber at a rate of 0.16 ml/min for 2 minutes. Thirty minutes prior to the spraying of the egg-white albumin solution, the test compound was administered orally in varied concentrations. Each dosed group consisted of 5 animals. The prophylactic effect to anaphylaxis was expressed in terms of the ED50 value determined on the basis of the number of guinea pigs which had survived for not less than 2 hours after antigen spraying for each administration concentration of the test compound.

The test system of test [2] is SRS-A synthesis or release from peritoneal exudate cells (5-lipoxygenase). Briefly: Anti-SRS-A activity (5-lipoxygenase inhibitory activity). The note with it: A23187 (1 μg/ml)-stimulated rat peritoneal exudate cells, indomethacin 10 μg/ml; SRS-A by contractility of isolated guinea pig ileum; read-out: Inhibitory Concentration IC50. In kind it is cell-based, SD rats. Here is the method:
Anti-SRS-A activity (5-lipoxygenase inhibitory activity)
Peritoneal exudate cells were collected from glycogen-injected SD rats and adjusted to 1×10^7 cells/ml with Tyrode's solution. One milliliter of the cell suspension was incubated with indomethacin (10 μg/ml) and each varied concentration of the test compound for 10 minutes and, then, further incubated with Ca^++ -ionophore (A23187, 1 μg/ml) for 10 minutes. The supernatant was collected by centrifugation and the SRS-A (slow-reacting substance of anaphylaxis) activity was determined in terms of contractility of the isolated guinea pig ileum in the presence of mepyramine, atropine and methysergide.
The results were expressed in terms of the 50% inhibitory concentration to SRS-A synthesis or release from peritoneal exudate cells.

As to `CS(=O)(=O)Nc1nc(CN2CCC(OC(c3ccccc3)c3ccccc3)CC2)cs1` [Compound A, 2-Mesylamino-4-[4-(diphenylmethoxy)piperidinomethyl]thiazole], the ED50 in test [1] was found to be 0.03 mg/kg. Consider `CCC(=O)Nc1nc(CN2CCC(OC(c3ccccc3)c3ccccc3)CC2)cs1` [Compound B, 2-Propionylamino-4-[4-(diphenylmethoxy)piperidinomethyl]thiazole], for which the IC50 in test [2] amounted to 0.023 µg/mL (≈ 0.0528 µM).

On to `CCCC(=O)Nc1nc(CN2CCC(OC(c3ccccc3)c3ccccc3)CC2)cs1` [Compound C, 2-Butyrylamino-4-[4-(diphenylmethoxy)piperidinomethyl]thiazole], for which, in test [2], the IC50 is 0.023 µg/mL (≈ 0.0512 µM). The same measure, in the same setting: to `O=C(Nc1nc(CN2CCC(OC(c3ccccc3)c3ccccc3)CC2)cs1)C1CC1` [Compound D, 2-Cyclopropylcarbonylamino-4-[4-(diphenylmethoxy)piperidinomethyl]thiazole] belongs 0.011 µg/mL (≈ 0.0246 µM); to `C[C@@H](O)C(=O)Nc1nc(CN2CCC(OC(c3ccccc3)c3ccccc3)CC2)cs1` [Compound E, 2-(D-Lactoylamino)-4-[4-(diphenylmethoxy)piperidinomethyl]thiazole], 0.015 µg/mL (≈ 0.0332 µM). On the same count and under the same terms, the figure for `CCOC(=O)Nc1nc(CN2CCC(OC(c3ccccc3)c3ccccc3)CC2)cs1` [Compound F, 2-Ethoxycarbonylamino-4-[4-(diphenylmethoxy)piperidinomethyl]thiazole] is 0.014 µg/mL (≈ 0.031 µM).

For `CNC(=O)Nc1nc(CN2CCC(OC(c3ccccc3)c3ccccc3)CC2)cs1` [Compound G, 2-(3-Methylureido)-4-[4-(diphenylmethoxy)piperidinomethyl]thiazole], in test [2], the IC50 stood at 0.015 µg/mL (≈ 0.0344 µM).
